Laboratory results from publication PMC5650142, “GPR40 partial agonists and AgoPAMs: Differentiating effects on glucose and hormonal secretions in the rodent” (PLoS ONE, 2017).
Where “and” joins values, the source holds several entries; their conditions need not be identical. Equal entries are not always repeated. Where two headings read alike, the source gives them in different places.

Key:
[1] = biological target: T1, human GPR40 (Homo sapiens, UniProt O14842); assay: Human GPR40 IP1 accumulation assay; format: cell-based; parameters: expressed in transfected cells
T1 sequence (O14842 whole entry): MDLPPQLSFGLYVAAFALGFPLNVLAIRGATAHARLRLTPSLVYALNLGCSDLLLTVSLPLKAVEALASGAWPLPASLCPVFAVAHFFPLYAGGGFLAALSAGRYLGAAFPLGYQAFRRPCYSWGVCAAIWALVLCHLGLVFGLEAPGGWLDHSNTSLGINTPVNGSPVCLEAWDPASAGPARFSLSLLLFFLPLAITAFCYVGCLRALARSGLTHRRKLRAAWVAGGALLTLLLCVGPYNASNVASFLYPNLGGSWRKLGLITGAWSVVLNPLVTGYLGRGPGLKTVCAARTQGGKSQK
Description: (§1) Stable cell lines expressing human GPR40 (hGPR40/HEK293), mouse GPR40 (mGPR40/CHO-K1), and rat GPR40 (rGPR40/CHO-K1) were cultured in DMEM media supplemented with 10% FBS, glutamine, non-essential amino acids, and penicillin/streptomycin. hGPR40/HEK293 & mGPR40/CHO-K1 cell media was supplemented with […] G418 (Life Technologies), while rGPR40/CHO-K1 cells were grown in […] blasticidin plus […] hygromycin (Life Technologies). Cell stocks were maintained and grown in a sub-confluent state using standard cell culture procedures. The day before the experiment, the cells were harvested with non-enzymatic cell dissociation buffer and re-suspended in DMEM supplemented with 10% FBS, glutamine, non-essential amino acids, penicillin/streptomycin at 0.15, 0.2 and 0.3 million cells per ml for human, mouse, and rat GPR40, respectively. […] The seeded plates were incubated overnight at 37 C.
(§2) On the day of the experiment, the growth media was removed from the assay by gently patting the assay plates on an absorbent sheet and 10 μl of IP1 stimulation buffer (Cis Bio IP-one Tb HTRF kit) supplemented with 50 mM LiCl is added to each well. Test compounds dissolved in DMSO were serially diluted in ½ log increments starting from 2 mM or 0.2 mM and 50 nl of the compound dilution was acoustically added to each well (final starting concentration 10 μM or 1 μM). Plates were then incubated for 60 minutes at room temperature and 10 μl of detection buffer (prepared as described in the Tb kit) is added to each well. The plates are then incubated one additional hour at room temperature. […] For each assay, a standard curve plate in which IP1 is titrated is also included. […] The percent activity at each concentration of test compound is determined using 0% activation (basal activity) determined in those wells that contain DMSO alone, while 100% activity is determined in wells that contained a concentration of a partial allosteric agonist know to activate GPR40. The % activity is then plotted versus the concentration of test compound and the dose response curve fitted to a standard 4-parameter non-linear regression model using a custom in-house developed software package (Merck & Co., Inc., MRL, Kenilworth, NJ, USA). Maximal % activity and EC50 are then determined for each test compound.

[2] = biological target: T1, human GPR40; assay: GPR40 binding assay, partial agonist tracer [3H]L358; parameters: expressed in transfected cells; host or cells: CHO / CHO-K1 cells, membrane preparation; conditions: radioligand L-001533358;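 as to %Bound: 100% is tracer binding with DMSO alone and 0% is full displacement by a standard compound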
Description: Two small molecule tracers, the partial agonist [3H][…] and the AgoPAM [3H]25, are used to measure compound affinity at each site as described previously. Because of the allosteric coupling of the two sites and the nature of the assay, addition of a compound will either displace (binds to same site) or augment (binds to allosterically coupled site) radiotracer. Membranes expressing GPR40 were prepared from CHO cells stably expressing human GPR40. […] Sigma P8830) and were homogenized in 50 ml aliquots with a motor-driven glass Dounce homogenizer, 15 strokes at 1900 rpm on wet ice, repeating once. Homogenates were centrifuged at 2200 rpm for 10 min at 4°C. Supernatants were carefully removed and pooled. Homogenization and centrifugation were repeated until the debris pellet was translucent to maximize membrane recovery. Supernatants were then centrifuged at […] rpm for 20 min. at 4°C. […] Protein concentration was determined by Pierce BCA kit. […] The beads and membrane mixture is then vigorously mixed for 30 minutes at room temperature prior to addition to the assay. […] Next, 15 μl of the radioligand and 35 μl of the beads/membranes solution is added to each well. The assay plates are then sealed and incubated for 30 minutes at room temperature on an orbital shaker. The plates are allowed to settle for 16 hours and then counted on a TopCount scintillation counter (PE). […] Maximal % bound and IC50 are then determined for each test compound. 5 μg/well membrane together with 200 μg/well of PVT WGA SPA beads (GE #RPNG-0001) were suspended in a white 96 well plate with a final concentration of 50 μl/well in assay buffer (50 mM Tris, 10 mM MgCl2, and 2 mM EDTA). […] The plate is briefly mixed and incubated for 3-18 h at room temperature, before it is read on a MicroBeta plate counter (Perkin Elmer, MS, USA).

[3] = biological target: T2, rat GPR40 (Rattus norvegicus, UniProt Q8K3T4); assay: Rat GPR40 IP1 accumulation assay; format: cell-based
T2 construct: expressed in transfected cells; host or cells: CHO-K1 (methods)
T2 sequence (Q8K3T4 whole entry): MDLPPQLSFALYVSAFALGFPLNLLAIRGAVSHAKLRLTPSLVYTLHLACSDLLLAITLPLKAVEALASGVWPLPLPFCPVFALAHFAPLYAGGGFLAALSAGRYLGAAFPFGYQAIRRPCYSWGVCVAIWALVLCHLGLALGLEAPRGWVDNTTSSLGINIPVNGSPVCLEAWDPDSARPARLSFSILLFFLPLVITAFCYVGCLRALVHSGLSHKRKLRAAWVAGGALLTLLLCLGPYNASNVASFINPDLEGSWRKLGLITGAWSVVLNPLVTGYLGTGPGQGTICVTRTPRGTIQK
Description: as §1, §2

[4] = biological target: T3, mouse GPR40 (Mus musculus, UniProt Q76JU9); assay: Mouse GPR40 IP1 accumulation assay; format: cell-based
T3 construct: expressed in transfected cells; host or cells: CHO-K1 (methods)
T3 sequence (Q76JU9 whole entry): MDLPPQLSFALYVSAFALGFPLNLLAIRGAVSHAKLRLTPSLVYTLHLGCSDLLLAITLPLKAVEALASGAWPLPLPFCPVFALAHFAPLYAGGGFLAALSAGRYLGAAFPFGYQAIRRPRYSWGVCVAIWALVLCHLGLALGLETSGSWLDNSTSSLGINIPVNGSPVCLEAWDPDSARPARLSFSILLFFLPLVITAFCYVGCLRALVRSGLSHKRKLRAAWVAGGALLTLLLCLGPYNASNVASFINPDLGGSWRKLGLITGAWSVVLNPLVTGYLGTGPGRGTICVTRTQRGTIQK
Description: as §1, §2

[5] = maximal % activity vs in-house partial agonist control

COc1ccc(F)c(-c2ccc([C@@H]3CCc4ccc([C@H](C5CC5)[C@H](C)C(=O)O)cc4O3)cc2)c1 [AP1]
Human GPR40 Receptor Activation (%) ([1]; dose 1.50E-11 M): 35% | Human GPR40 Receptor Activation (%) ([1]; dose 1.55E-08 M): 357% | Human GPR40 Receptor Activation (%) ([1]; dose 2.43E-10 M): 231% | Human GPR40 Receptor Activation (%) ([1]; dose 2.49E-07 M): 381% | Human GPR40 Receptor Activation (%) ([1]; dose 3.89E-09 M): 357% | Human GPR40 Receptor Activation (%) ([1]; dose 4.00E-12 M): 5% | Human GPR40 Receptor Activation (%) ([1]; dose 6.10E-11 M): 154% | Human GPR40 Receptor Activation (%) ([1]; dose 6.22E-08 M): 356% | Human GPR40 Receptor Activation (%) ([1]; dose 9.72E-10 M): 323% | Human GPR40 Receptor Activation (%) ([1]; dose 9.95E-07 M): 404% | %Act, HUMAN GPR40, Functional Assay ([1]; individual determinations): 254% and 368% and 338% and 409% and 464% and 275% and 405% and 364% and 355% | EC50 ([1]; individual determinations, read-out: EC50 (nM), HUMAN GPR40, Functional Assay): 0.13 nM and 0.14 nM and 0.18 nM and 0.19 nM and 0.22 nM and 0.08 nM and 0.09 nM and 0.12 nM | Efficacy (% Activation), Human [1, 5]: (359%) | EC50 ([1]; mean ± SD, n = 2–20, IP accumulation, read-out: Potency [EC50, nM] ± SD, Human): 0.15 ± 0.05 nM | % Bound Normalized to 100 ([2]; dose 0.318285 nM): 100.72% | %Bound ([2]; dose 0.318285 nM): 106.70% | % Bound Normalized to 100 ([2]; dose 1.00578 nM): 118.24% | %Bound ([2]; dose 1.00578 nM): 124.21% | % Bound Normalized to 100 ([2]; dose 3.17827 nM): 131.70% | %Bound ([2]; dose 3.17827 nM): 137.67% | % Bound Normalized to 100 ([2]; dose 10.0433 nM): 152.63% | %Bound ([2]; dose 10.0433 nM): 158.61% | % Bound Normalized to 100 ([2]; dose 31.7369 nM): 164.17% | %Bound ([2]; dose 31.7369 nM): 170.14% | % Bound Normalized to 100 ([2]; dose 100.289 nM): 171.43% | %Bound ([2]; dose 100.289 nM): 177.41% | % Bound Normalized to 100 ([2]; dose 316.912 nM): 183.61% | %Bound ([2]; dose 316.912 nM): 189.59% | % Bound Normalized to 100 ([2]; dose 1001.44 nM): 174.85% | %Bound ([2]; dose 1001.44 nM): 180.83% | % Bound Normalized to 100 ([2]; dose 3164.56 nM): 169.51% | %Bound ([2]; dose 3164.56 nM): 175.49% | % Bound Normalized to 100 ([2]; dose 10000 nM): 192.80% | %Bound ([2]; dose 10000 nM): 198.77% | Rat GPR40 Receptor Activation (%) ([3]; dose 1.50E-11 M): 7% | Rat GPR40 Receptor Activation (%) ([3]; dose 1.55E-08 M): 588% | Rat GPR40 Receptor Activation (%) ([3]; dose 2.43E-10 M): 161% | Rat GPR40 Receptor Activation (%) ([3]; dose 2.49E-07 M): 616% | Rat GPR40 Receptor Activation (%) ([3]; dose 3.89E-09 M): 549% | Rat GPR40 Receptor Activation (%) ([3]; dose 4.00E-12 M): 0.25% | Rat GPR40 Receptor Activation (%) ([3]; dose 6.10E-11 M): 52% | Rat GPR40 Receptor Activation (%) ([3]; dose 6.22E-08 M): 567% | Rat GPR40 Receptor Activation (%) ([3]; dose 9.72E-10 M): 357% | Rat GPR40 Receptor Activation (%) ([3]; dose 9.95E-07 M): 567% | %Act, Rat GPR40, Functional Assay ([3]; individual determinations): 391% and 456% and 671% and 592% and 636% and 716% and 674% and 356% and 385% and 437% | EC50 ([3]; individual determinations, read-out: EC50 (nM), Rat GPR40, Functional Assay): 0.45 nM and 0.46 nM and 0.58 nM and 0.61 nM and 0.72 nM and 0.95 nM and 1.15 nM and 0.31 nM and 0.33 nM and 0.36 nM | Efficacy (% Activation), Rat [3, 5]: (531%) | EC50 ([3]; mean ± SD, n = 2–20, IP accumulation, read-out: Potency [EC50, nM] ± SD, Rat): 0.59 ± 0.28 nM | Mouse GPR40 Receptor Activation (%) ([4]; dose 1.50E-11 M): 13% | Mouse GPR40 Receptor Activation (%) ([4]; dose 1.55E-08 M): 531% | Mouse GPR40 Receptor Activation (%) ([4]; dose 2.43E-10 M): 207% | Mouse GPR40 Receptor Activation (%) ([4]; dose 2.49E-07 M): 540% | Mouse GPR40 Receptor Activation (%) ([4]; dose 3.89E-09 M): 508% | Mouse GPR40 Receptor Activation (%) ([4]; dose 4.00E-12 M): -3.79% | Mouse GPR40 Receptor Activation (%) ([4]; dose 6.10E-11 M): 72% | Mouse GPR40 Receptor Activation (%) ([4]; dose 6.22E-08 M): 489% | Mouse GPR40 Receptor Activation (%) ([4]; dose 9.72E-10 M): 327% | %Act, Mouse GPR40, Functional Assay ([4]; individual determinations): 325% and 647% and 612% and 390% and 593% and 587% and 801% and 441% and 392% and 533% | EC50 ([4]; individual determinations, read-out: EC50 (nM), Mouse GPR40, Functional Assay): 0.44 nM and 0.48 nM and 0.55 nM and 0.56 nM and 0.66 nM and 0.74 nM and 0.33 nM and 0.41 nM and 0.43 nM | Efficacy (% Activation), Mouse [4, 5]: (532%) | EC50 ([4]; mean ± SD, n = 2–20, IP accumulation, read-out: Potency [EC50, nM] ± SD, Mouse): 0.51 ± 0.12 nM
